From patent US10881698B2, “Diagnosis and treatment for respiratory tract diseases” (THE TRUSTEES OF THE UNIVERSITY OF PENNSYLVANIA, priority 2012, dated 2021)
Substitutions are numbered along the chain they refer to. Values joined by “and” are separate entries in the source; they are usually repeats but may differ in a detail not shown here. Equal entries are not always repeated.

Columns and labels:
[1] = tested on: T2R38; assay: Fluo-4 Ca2+ imaging in primary human sinonasal ALI cultures; type: cell-based
[2] = molecular target: T1, T2R38 (Homo sapiens, UniProt P59533, A262V); assay: DAF-FM imaging of NO production in human sinonasal ALI cultures; type: cell-based; conditions: for DAF-FM fluorescence increase: 5 min, AVI/AVI
T1 construct: T2R38 is expressed in human upper airway epithelium; endogenous in cells; host or cells: primary human sinonasal epithelial cells, air-liquid interface cultures from surgical patients
T1 sequence (P59533 1-333 A262V): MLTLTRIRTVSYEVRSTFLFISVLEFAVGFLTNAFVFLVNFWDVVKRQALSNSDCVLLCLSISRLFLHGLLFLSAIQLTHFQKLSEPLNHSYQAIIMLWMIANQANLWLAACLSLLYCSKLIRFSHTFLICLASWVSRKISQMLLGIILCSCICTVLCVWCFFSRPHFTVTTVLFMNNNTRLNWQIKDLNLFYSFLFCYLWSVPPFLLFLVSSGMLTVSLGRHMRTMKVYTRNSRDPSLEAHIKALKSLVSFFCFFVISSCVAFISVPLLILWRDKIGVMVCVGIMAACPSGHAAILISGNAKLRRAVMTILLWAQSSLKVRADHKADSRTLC

[3] = molecular target: T2, T2R38 (Homo sapiens, UniProt P59533, A49P/I296V); assay: as above; type: cell-based; conditions: for DAF-FM fluorescence increase: 5 min, PAV/PAV
T2 construct: T2R38 is expressed in human upper airway epithelium; endogenous in cells; host or cells: primary human sinonasal epithelial cells, air-liquid interface cultures from surgical patients
T2 sequence (P59533 1-333 A49P/I296V): T1 sequence (P59533 1-333 A262V) with A49P, V262A, I296V

[4] = tested on: beta-defensin 2; assay: Beta-defensin 2 secretion by sinonasal cultures; type: cell-based, human; conditions: denatonium- or absinthin-stimulated cultures
[5] = tested on: nasal epithelial cells; assay: Fluo-4 calcium signaling with denatonium in nasal epithelial cells (sinonasal ALI cultures); type: cell-based, human; conditions: 2 mM sucrose or 1 mM sucralose
[6] = tested on: sinonasal epithelial cells; assay: DAF-FM NO production with quinine in PAV/AVI heterozygote sinonasal epithelial cells; type: cell-based, human; conditions: apical application; PAV/AVI heterozygote cells
[7] = molecular target: T1, T2R38; assay: Fluo-4 Ca2+ imaging in primary human sinonasal ALI cultures; type: cell-based; conditions: AVI/AVI
[8] = molecular target: T2, T2R38; assay: as above; type: cell-based; conditions: for Average peak Fluo-4 F/Fo after 5 min stimulation with C6HSL: 200 μM C6HSL
[9] = molecular target: T3, PAV-TAS2R38 (Homo sapiens, UniProt P59533, A49P/I296V); assay: Fluo-4 calcium mobilization in HEK293 cells expressing hTAS2R38 (PAV) and Gα16gustducin44; type: cell-based; conditions: PAV variant
T3 construct: first 45 amino acids of rat SSTR-3 (N); host or cells: HEK293 (peakRapid), transient transfection, pcDNA3.1(+)
T3 sequence (P59533 1-333 A49P/I296V): T1 sequence (P59533 1-333 A262V) with A49P, V262A, I296V

[10] = molecular target: T4, AVI-TAS2R38 (Homo sapiens, UniProt P59533, A262V); assay: Fluo-4 calcium mobilization in HEK293 cells expressing hTAS2R38 (AVI) and Gα16gustducin44; type: cell-based; conditions: AVI variant
T4 construct: first 45 amino acids of rat SSTR-3 (N); host or cells: HEK293 (peakRapid), transient transfection, pcDNA3.1(+)
T4 sequence (P59533 1-333 A262V): T1 sequence (P59533 1-333 A262V)

[11] = tested on: T2R38; assay: DAF-FM imaging of NO production in human sinonasal ALI cultures; type: cell-based; conditions: 5 min, PAV/AVI
[12] = tested on: sinonasal ALI cultures; type: cell-based, human
[13] = tested on: sinonasal ALI cultures; assay: Mucociliary transport velocity of fluorescent microspheres on sinonasal ALI cultures; type: cell-based, human
[14] = tested on: acutely dissociated sinonasal ciliated epithelial cells; assay: Ca2+ and DAF-FM responses in acutely dissociated sinonasal ciliated cells; type: cell-based, human
[15] = tested on: Pseudomonas aeruginosa

sodium thiocyanate [NaSCN]
F/Fo after stimulation with 5 mM NaSCN ([1]; +L-NAME (50 μM)): 1.24±0.07 | F/Fo after stimulation with 5 mM NaSCN ([1]; control (no L-NAME)): 1.33±0.08 | DAF-FM fluorescence increase after 5 min NaSCN [2]: 61±23 units | DAF-FM fluorescence increase after 5 min NaSCN [3]: 202±38 units

COc1ccc2c(c1)CC[C@@H]1[C@@H]2CC[C@]2(C)[C@@H](NCCCCCCN3C(=O)CCC3=O)CC[C@@H]12 [U73343]
Effect on C4HSL-induced NO production in taster cultures ([3]; C4HSL 200 μM, U73122 5 μM, 20 min pre-incubation): had no effect on NO production | Effect on beta-defensin secretion [4]: had no effect

OC[C@H]1O[C@@](CO)(O[C@H]2O[C@H](CO)[C@@H](O)[C@H](O)[C@H]2O)[C@@H](O)[C@@H]1O [sucrose]
Effect on denatonium induced calcium signaling [5]: inhibits denatonium induced calcium signaling

C=C[C@H]1C[N@@]2CC[C@H]1C[C@H]2[C@H](O)c1ccnc2ccc(OC)cc12 [quinine]
NO production (increase in DAF-FM fluorescence) [6]: stimulated a robust NO production

CCCCCC(=O)N[C@H]1CCOC1=O [C6HSL, N-Hexanoyl-L-homoserine lactone]
Average peak Fluo-4 F/Fo after 5 min stimulation with C6HSL ([7]; 200 μM C6HSL): 1.21±0.09 | Average peak Fluo-4 F/Fo after 5 min stimulation with C6HSL ([8]; PAV/PAV): 1.52±0.074 | Average peak Fluo-4 F/Fo after 5 min stimulation with C6HSL ([8]; PAV/PAV+U73122): 1.10±0.09

CCCC(=O)N[C@H]1CCOC1=O [C4HSL, N-butyryl-L-homoserine lactone]
Fluo-4 fluorescence after 5 min C4HSL ([7]; 200 μM C4HSL): 1.10±0.04 | Fluo-4 fluorescence after 5 min C4HSL ([8]; 200 μM C4HSL, PAV/PAV): 1.29±0.03 | Fluo-4 fluorescence after 5 min C4HSL ([1]; 200 μM C4HSL, PAV/AVI): 1.14±0.04 | Peak Fluo-4 fluorescence (ΔF/F) ([9]; 200 μM): 61±2% | Peak Fluo-4 fluorescence (ΔF/F) ([10]; 200 μM): 0.3±0.4% | DAF-FM fluorescence increase ([2]; 10 μM): 50±2 | DAF-FM fluorescence increase ([2]; 100 μM): 69±8 | DAF-FM fluorescence increase ([3]; 10 μM): 132±14 | DAF-FM fluorescence increase ([3]; 100 μM): 230±30 | DAF-FM fluorescence increase ([11]; 10 μM): 68±6 | DAF-FM fluorescence increase ([11]; 100 μM): 130±17 | Peak CBF with C4HSL [12]: 1.17±0.02 and 1.02±0.02 | Increase in velocity ([13]; 0.1 μM, PAV/PAV): 1.07±0.02 | Increase in velocity ([13]; 1 μM, PAV/PAV): 1.12±0.03 | Increase in velocity ([13]; 10 μM, PAV/PAV): 1.21±0.04 | Increase in velocity ([13]; 100 μM, AVI/AVI): 1.12±0.03 | Increase in velocity ([13]; 100 μM, PAV/PAV): 1.47±0.07 | Concentration required to stimulate a significant increase in mucociliary transport ([13]; PAV/PAV cultures): 10 µM | Ca2+ responses in acutely dissociated sinonasal ciliated cells [14]: occurred

OCc1ccccc1O[C@@H]1O[C@H](CO)[C@@H](O)[C@H](O)[C@H]1O [salicin]
Peak Fluo-4 fluorescence (ΔF/F) ([9]; 10 mM): 1.4±0.3% | Peak Fluo-4 fluorescence (ΔF/F) ([10]; 10 mM): 3±1%

colistin sulfate
% green (viable) PAO1 [15]: 4±2%

OC[C@H]1O[C@H](O[C@]2(CCl)O[C@H](CCl)[C@@H](O)[C@@H]2O)[C@H](O)[C@@H](O)[C@H]1Cl [sucralose]
Effect on denatonium induced calcium signaling [5]: inhibits denatonium induced calcium signaling

COC(=O)[C@H](N)CCCN=C(N)N[N+](=O)[O-] [D-NAME]
Effect on HSL-stimulated CBF increase [12]: not
